Data taken from patent US20250109127A1, “METHODS OF USE OF PHENOXYPROPYLAMINE COMPOUNDS TO TREAT DEPRESSION” (Minerva Neurosciences, Inc., priority 2013, published 2025).
Values joined by “and” are separate entries in the source; they are usually repeats but may differ in a detail not shown here. Identical values can stand only once. Counter-ions that a name gives are not always drawn.

System: dopamine release in the rat prefrontal cortex
Experiment: Microdialysis: dopamine release in prefrontal cortex after I.P. administration
Type: in vivo
Conditions: for Dopamine release, individual animals / Dopamine release, MEAN: 0.3 mg/kg I.P.; for Dopamine release, individual animals: one column per animal R#11,12,18,23,29,30,17,24, hydrochloride; for Dopamine release, MEAN / DOPAMINE (% of respective basal) MEAN: n = 8; for DOPAMINE (% of respective basal) MEAN: SON-117 group 0.1 mg/kg I.P.
Description: The aim of the study was to evaluate, using microdialysis, the effects of an intraperitoneal (I.P.) administration in rats of three different doses of SON-117 on dopamine and its metabolites, serotonin and its metabolite (5-HIAA), and norepinephrine levels in prefrontal cortex.
Thirty-two adult male Wistar rats were used for the whole study (4 groups of eight animals planned for the study, Table 1).
Surgery was performed on rats weighing about 300 g at the beginning of the experiments. Rats were anaesthetized with Ketamine (50 mg/kg) & Xylazine (15 mg/kg) by intramuscular administration. The animals were placed in a stereotaxic apparatus in the flat-skull position at a constant setting of −3.3 mm between ear bars and the incisor bar. The animals were treated with a local anesthesic (xylocaine 1%, Astra Zeneca) and an analgesic (Temgesic, from Schering Plough, 0.05 mg/kg, s.c.). A rostrocaudal midline incision was made with a lancet to expose the dorsal skull surface. The “stereotaxic zero” was defined by the Bregma in accordance with Paxinos and Watson's atlas (1986). A hole was drilled in the skull with a drill and the meninges were pierced with a sterile needle to implant a CMA12 guide cannula which later received the dialysis probe.
Coordinates used for implanting guide cannula in prefrontal cortex from Bregma were anteroposterior 3.7 mm, mediolateral 0.8 mm, and dorsoventral −2 mm (top of the probe was at −5 mm). The guide cannula was fixed to the skull with two stainless steel screws (1.88 mm outside diameter) anchored. An application of dental cement was added. A plastic collar allowed each animal to be tethered to a Swivel assembly of the CMA 120 awake animal system. Following surgery, rats were kept in individual cages and allowed to recover for a minimum of 3-5 days before the experimentation. The rats were handled and put in plastic bowl for 10 min at least every day to habituate the animals to their new environment for the dialysis. An I.P. administration with saline was also performed every day.
Dialysis probes (CMA12/3 mm, membrane, 20 kD cut-off, Carnegie Medicine, Stockholm, Sweden), were carefully washed before inserting into the guide cannula. The wash was performed with the artificial cerebrospinal fluid (aCSF) medium (NaCl 147 mM, KCl 2.7 mM, CaCl2 1.2 mM, MgCl2 0.85 mM) at room temperature. The dialysis system was then equilibrated at 20° C. at a perfusion rate of 1 μl/min with a Carnegie pump (CMA100). All catheters (FEP tubing, internal volume of 1.2 μl/10 cm, and tubing adaptors) used for microdialysis were treated in the same conditions.
The probes duly prepared were inserted into the guide cannula and the CMA120 Swivel assembly secured to the animal using a plastic collar. Flow through the dialysis probe with aCSF was maintained at a rate of 1 μl/min during the whole experimentation. The first four fractions (corresponding to 2 hours) were discarded to avoid the effects of parenchymal disturbance and to ensure that an approximate steady-state level was reached. Fractions were then collected over a period of 8.5 h during which time the animals remained quiet. The dialysates were automatically collected with an autosampler (microfraction collector CMA 140, Carnegie Medicin) and stored at −80° C. until analysis. […] Perfusion was then maintained for 7 hours with aCSF. The dialysates (30 μl) were collected into 300 μl vials, transferred into dry ice and then kept frozen (−80° C.) until analysis. Frozen samples were shipped to a partner for analysis. At the end of the microdialysis study, a PBS with colored ink was perfused through the probe in order to visualize the dialyzed area.
Catecholamine assay: Concentrations of dopamine, DOPAC, HVA, 5-HIAA, 5-HT, and norepinephrin were determined for each sample by HPLC coupled with electrochemical detection.

[1] = T-30 min-T0 (before administration)
[2] = T-1 h 30-T-1 h (before administration)
[3] = T-1 h-T-30 min (before administration)

`Cc1nnc(-c2cc3c(OC[C@@H](O)CN4CCC(c5ccc(Cl)c(Cl)c5)CC4)cccc3o2)o1` [SON-117, (S)-1-(4-(3,4-dichlorophenyl)piperidino)-3-(2-(5-methyl-1,3,4-oxadiazol-2-yl)benzo(b)furan-4-yloxy)-2-propanol hydrochloride] was tested, and the “Dopamine release, individual animals” value (T5 h 30-T6 h) was 1190.31 % of respective basal and 66.72 % of respective basal and 285.31 % of respective basal and 29.48 % of respective basal and 247.57 % of respective basal and 111.91 % of respective basal and 52.03 % of respective basal and 128.48 % of respective basal, the “Dopamine release, MEAN” value (T5 h-T5 h 30) was 263.19 % of respective basal and the “Dopamine release, individual animals” value (T5 h-T5 h 30) was 611.23 % of respective basal and 37.39 % of respective basal and 1036.44 % of respective basal and 30.12 % of respective basal and 108.05 % of respective basal and 81.56 % of respective basal and 80.36 % of respective basal and 120.37 % of respective basal. The “Dopamine release, MEAN” value (T6 h 30-T7 h) was 297.55 % of respective basal, the “Dopamine release, individual animals” value (T6 h 30-T7 h) was 331.87 % of respective basal and 230.42 % of respective basal and 224.57 % of respective basal and 11.34 % of respective basal and 202.06 % of respective basal and 117.28 % of respective basal and the “Dopamine release, MEAN” value (T6 h-T6 h 30) was 267.65 % of respective basal. For the same compound, the “Dopamine release, individual animals” value (T6 h-T6 h 30) was 879.91 % of respective basal and 122.45 % of respective basal and 101.84 % of respective basal and 10.68 % of respective basal and 188.10 % of respective basal and 103.08 % of respective basal and 135.89 % of respective basal and 599.24 % of respective basal, the “Dopamine release, MEAN” value [1] was 100.22 % of respective basal and the “Dopamine release, MEAN” value [2] was 104.26 % of respective basal. The “Dopamine release, MEAN” value [3] was 98.66 % of respective basal, the “dopamine levels, increase (not statistically significant)” value (SON-117 0.1 mg/kg I.P., from 4.5 h to 7 h) was 353% and the “dopamine levels, increase (not statistically significant)” value (SON-117 0.1 mg/kg I.P., from T1.5 h and 2.5 h) was 287%. The “dopamine levels, increase (not statistically significant)” value (SON-117 0.3 mg/kg I.P., from 5.5 h to 7 h) was 298%, the “dopamine levels, slight increase (not statistically significant)” value (SON-117 3 mg/kg IP, at 1.5 h) was 169% and the “dopamine levels, slight increase, max. (not statistically significant)” value (SON-117 3 mg/kg IP, from 6 h to 7 h) was 167%. The “release of dopamine, trend” value (SON-117 0.1 and 0.3 mg/kg, from 5.5 h) was “trend for an increased release”, the “dopamine, difference to the citalopram group (two-way ANOVA)” value (SON-117 at the three doses tested, in function of time) was “no significant differences” and the “DOPAMINE (% of respective basal) MEAN” value (T0-T30 min) was 133.37 % of respective basal. The “DOPAMINE (% of respective basal) MEAN” value (T30-T1 h) was 103.29 % of respective basal, the “DOPAMINE (% of respective basal) MEAN” value (T1 h 30-T2 h) was 151.81 % of respective basal and the “DOPAMINE (% of respective basal) MEAN” value (T1 h-T1 h 30) was 123.06 % of respective basal. The “DOPAMINE (% of respective basal) MEAN” value (T2 h 30-T3 h) was 138.45 % of respective basal, the “DOPAMINE (% of respective basal) MEAN” value (T2 h-T2 h 30) was 286.96 % of respective basal and the “DOPAMINE (% of respective basal) MEAN” value (T3 h 30-T4 h) was 155.83 % of respective basal. For the same compound, the “DOPAMINE (% of respective basal) MEAN” value (T3 h-T3 h 30) was 150.01 % of respective basal, the “DOPAMINE (% of respective basal) MEAN” value (T4 h 30-T5 h) was 240.84 % of respective basal and the “DOPAMINE (% of respective basal) MEAN” value (T4 h-T4 h 30) was 215.81 % of respective basal. The “DOPAMINE (% of respective basal) MEAN” value (T5 h 30-T6 h) was 188.21 % of respective basal, the “DOPAMINE (% of respective basal) MEAN” value (T5 h-T5 h 30) was 183.94 % of respective basal and the “DOPAMINE (% of respective basal) MEAN” value (T6 h 30-T7 h) was 353.25 % of respective basal. The “DOPAMINE (% of respective basal) MEAN” value (T6 h-T6 h 30) was 226.43 % of respective basal, the “DOPAMINE (% of respective basal) MEAN” value [1] was 105.18 % of respective basal and the “DOPAMINE (% of respective basal) MEAN” value [2] was 100.9 % of respective basal. For the same compound, the “DOPAMINE (% of respective basal) MEAN” value [3] was 91.46 % of respective basal.
